Peptide text beside a SMILES is read from it. * marks the point of attachment. Cbz = O=C(OCc1ccccc1)*; OtBu = CC(C)(C)O*
Assays:
[1] = test system: caspase-1 like activity; assay: Caspase activity in lysates of treated HUE cells, substrate Ac-YVAD-AMC; format: cell-based, human; details: HUE cell lysates, 50 µM, throughout the time course
Protocol: Detection of a caspase-3-like activity in lysates of PSI-treated HUE cells. […] The specific caspase activities are shown as pmol of substrate hydrolyzed/min per µg of protein.
HUE cells (8 x 10^5) were plated onto 10 cm plastic dishes, allowed to attach overnight, and inhibitors were added to a final concentration of 50 µM for the times indicated in Fig. 4. DMSO, which served as the vehicle, was added to a final concentration of 0.1%. Floating and adherent cells were then harvested, lysed in Buffer I (1% Triton X100, 10 mM KCl, 20 mM HEPES pH 7.4, 1.5 mM MgCl2, 0.2 mM EGTA, 1 mM PMSF), snap frozen in liquid nitrogen and stored at -80°C until required. Lysates were centrifuged at 13000 g for 5 min at 4°C, the supernatants collected and protein concentrations determined using the BCA assay. A 40 µl aliquot of each sample was assayed in the presence of 20 µM Ac-DEVD-AMC or Ac-YVAD-AMC substrates (Bachem, Heidelberg, Germany) in Buffer II (50 mM PIPES-KOH pH 7.0, 0.1 mM EDTA, 1 mM DTT, 10% glycerol; total volume 250 µl) for 40 min at 37°C and the fluorescence intensity was measured with an excitation wavelength of 350 nm and emission wavelength of 430 nm. […] Specific activity was expressed as pmol AMC liberated per min and per µg protein in comparison to a standard curve calculated from the amount of free AMC (SIGMA, Deisenhofen, Germany).

[2] = test system: subconfluent primary BAE cells; assay: Apoptotic morphology (phase contrast, Hoechst 33342), BAE cells; format: cell-based, bovine; details: subconfluent BAE cells; 50 µM for 15 - 24 h, or 10 µM after 48 hours
[3] = test system: HUE cells; assay: Viability assay (MIT assay), HUE cells; format: cell-based, human; details: for EC50: Homo sapiens, 48 h, 48 h incubation
[4] = test system: BAE cells; assay: Viability assay (MIT assay), BAE cells; format: cell-based, bovine; details: for EC50: Bos taurus
[5] = test system: caspase-3 like activity; assay: Caspase activity in lysates of treated HUE cells, substrate Ac-DEVD-AMC; format: cell-based, human; details: HUE cell lysates, 50 µM
Protocol: Subconfluent endothelial cells were incubated with the inhibitors for the indicated times, lysed and caspase activities determined using Ac-DEVD-AMC for caspase-3-like enzymes and Ac-YVAD-AMC for caspase-1-like activities as described in the Material and Methods section (PSI, filled circles; LLnM, open square; E64, open triangles; Leupeptin, filled triangles; Pepstatin, filled squares). The specific caspase activities are shown as pmol of substrate hydrolyzed/min per µg of protein.
HUE cells (8 x 10^5) were plated onto 10 cm plastic dishes, allowed to attach overnight, and inhibitors were added to a final concentration of 50 µM for the times indicated in Fig. 4. DMSO, which served as the vehicle, was added to a final concentration of 0.1%. Floating and adherent cells were then harvested, lysed in Buffer I (1% Triton X100, 10 mM KCl, 20 mM HEPES pH 7.4, 1.5 mM MgCl2, 0.2 mM EGTA, 1 mM PMSF), snap frozen in liquid nitrogen and stored at -80°C until required. Lysates were centrifuged at 13000 g for 5 min at 4°C, the supernatants collected and protein concentrations determined using the BCA assay. […] Specific activity was expressed as pmol AMC liberated per min and per µg protein in comparison to a standard curve calculated from the amount of free AMC (SIGMA, Deisenhofen, Germany).

[6] = test system: MDCK epithelial cells; assay: Viability assay (MIT assay), MDCK cells; format: cell-based, canine; details: for EC50: Canis lupus familiaris, 48 h, 48 h incubation
Protocol: The indicated values are expressed as the percentage of absorbance at 570 nm relative to the absorbance obtained by DMSO treated (control) cells.
Madin Darby canine kidney epithelial cells (MDCK; ATCC CLL-34) were grown in Dulbecco's Modified Eagle's Medium (DMEM) containing 10% FCS, penicillin and streptomycin.
Briefly, the cells were plated either at 3000 cells/well (low density) or 30000 cells/well (high density) onto 96 well plates and grown over night. […] The formazan cystals generated were subsequently dissolved in DMSO and absorption measured at 570 - 650 nm.

[7] = test system: HUE cells; assay: DNA fragmentation assay; format: cell-based, human; details: 10 µM PSI for 18 hours, agarose gel
Protocol: • a. Analysis of PSI-induced DNA fragmentation by agarose gel electrophoresis. […] Neither caspase inhibitor (Ac-YVAD-CHO 250 µM, lane 4; Ac-DEVD-CHO 250 µM, lane 5) nor DMSO (lane 6) induced the characteristic pattern of DNA fragmentation. M1 and M2: DNA size markers (kb). • b. Immunoblot analysis of HUE cell lysates after incubation with PSI. […] Equal loading was controlled by using an antibody directed against GAPDH enzyme.
HUE cells which had been plated at 20000 cells/cm^2 24 hours before the assay, were treated with 250 µM of the caspase inhibitors Ac-YVAD-CHO or Ac-DEVO-CHO (Peptide Institute, Osaka, Japan) or the equivalent volume of dimethylsulfoxide (DMSO) for 1 h prior to additon of the proteasomal inhibitors. Incubation of the cells was continued for a further 18 h and the extent of DNA fragmentation was analyzed as previously described with some minor modifications (Hockenberry et al., Nature 348 (1990), 334 - 336). Briefly, both the floating cells and the adherent cells which were detached by trypsinization, were lysed in a solution containing 0.5% Triton X100, 10 mM EDTA and 10 mM Tris-HCL pH 7.5 for 30 min on ice. To separate the intact chromatin from the oligonucleosomal fragments, the lysate was centrifuged at 13000 g for 10 min at 4°C and the resulting supernatant was sequentially extracted with phenol followed by phenol/chloroform/iso-amylalcohol (25:24:1; v/v/v). Low molecular weight DNA was precipitated by the addition of 0.5 vol 7 M ammonium acetate and 2.5 vol ice-cold ethanol. The precipitate was washed in 75% ethanol, dissolved in TE-buffer, containing RNase A (20 µg/ml; Boehringer Mannheim), incubated for 30 min at 37°C and subjected to electrophoresis on 1.5% agarose gels.

[8] = EC50 confluent versus subconfluent, 2880 min
[9] = sub (low density, subconfluent)

CC[C@H](C)[C@H](NC(=O)OCc1ccccc1)C(=O)N[C@@H](CCC(=O)OC(C)(C)C)C(=O)N[C@@H](C)C(=O)N[C@H](C=O)CC(C)C [PSI, carbobenzoxy-L-isoleucyl-y-t-butyl-L-glutamyl-L-alanyl-L-leucinal] (Cbz-IE(OtBu)AL-aldehyde)
caspase-1 like activity [1]: could not be detected
morphological changes associated with programmed cell death [2]: cytoplasmic shrinkage and bleb formation as well as extensive nuclear condensation and fragmentation
x difference [3, 8]: 1119 fold
EC50 ([3]; con (grown to confluency)): 7.83 µM
EC50 [3, 9]: 0.007 µM
x difference ([4]; BAE, EC50 confluent versus subconfluent, 2880 min): 340 fold
EC50 ([4]; 96 h, BAE cells seeded at high density, grown to confluency for 4 days): 8.15 µM
EC50 ([4]; BAE, con (grown to confluency for 4 days), 48 h incubation): 8.15 µM
EC50 ([4]; BAE, sub (low density, subconfluent), 48 h incubation, viability reduced to 50% of DMSO control): 0.024 µM
time of maximum of Ac-DEVD-AMC cleavage [5]: 15 h
EC50 ([6]; con (confluent)): 3100 nM
EC50 [6, 9]: 16 nM
x difference [6, 8]: 194 fold
DNA fragmentation (DNA ladder formation) [7]: induced DNA ladder formation

From EP1053750A1, “Use of proteasome-inhibitor for the induction of programmed cell death (apoptosis)” (Max-Planck-Gesellschaft zur Förderung der Wissenschaften …, priority 1999, dated 2000)
